{
  "source": "patent US20200199689A1",
  "about": "“Method for Predicting Effectiveness of Angiogenesis Inhibitor” (Eisai R&D Management Co., Ltd., priority 2011, published 2020)",
  "system": "human melanoma cell line grafted mouse models",
  "experiment": "Anti-tumor effect of angiogenesis inhibitor on mouse model grafted with melanoma cell line",
  "type": "in vivo, nude mouse",
  "conditions": "100 mg/kg/day orally, 7th day after initiation of administration",
  "experimental": "The human melanoma cell lines used in Example 1 were respectively cultured in the mediums shown in the column of “Culture medium” (containing 10% FBS) of Table 6 until about 80% confluency was obtained (in an incubator under 5% carbon dioxide gas). After culturing, cells were collected by trypsin-EDTA treatment in accordance with a conventional method. The cells were suspended with a phosphate buffer or a matrigel solution (mixture of phosphate buffer and matrigel in a common ratio of 1:1) to prepare suspension solution of 1×10^8 cells/mL or 5×10^7 cells/mL. The cell suspension (0.1 mL) was subcutaneously grafted to the side of the body of each nude mouse. In this manner, human melanoma cell line grafted mouse models were prepared.\nAfter grafting, from the time point when a tumor volume reached about 200 mm^3, a mesylate of 4-(3-chloro-4-(cyclopropylaminocarbonyl)aminophenoxy)-7-methoxy-6-quinolinecarboxamide (hereinafter referred to as E7080) (100 mg/kg/day) was orally administered. The major axis and minor axis of the tumor were measured everyday by Digimatic Caliper (Mitsutoyo). The tumor volume and specific tumor volume were calculated in accordance with the following formula and thereby the anti-tumor effect (ΔT/C) of an angiogenesis inhibitor on the mouse model was measured.\nTumor volume (TV)=tumor longest diameter (mm)×tumor short diameter^2 (mm^2)/2\nAnti-tumor effect (ΔT/C)=(TV of medicinal drug administered group−TV before initiation of administration)/(TV of control group−TV before initiation of administration)×100\nIn FIG. 1, the same cell lines used in Example 1 were used.",
  "data": [
    {"compound": "COc1cc2nccc(Oc3ccc(NC(=O)NC4CC4)c(Cl)c3)c2cc1C(N)=O", "note": "[E7080, 4-(3-Chloro-4-(cyclopropylaminocarbonyl)aminophenoxy)-7-methoxy-6-quinolinecarboxamide]", "values": [
      {"measurement": "Anti-tumor effect (ΔT/C)", "setting": "melanoma cells where BRAF has a mutation and PTEN has no mutation", "value": 45, "unit": "%"},
      {"measurement": "Anti-tumor effect (ΔT/C)", "setting": "melanoma cells where both of BRAF and PTEN are wild type", "value": 16, "unit": "%"},
      {"measurement": "Anti-tumor effect (ΔT/C)", "setting": "melanoma cells where both of BRAF and PTEN have a mutation or loss of expression", "value": 23, "unit": "%"}
    ]}
  ]
}
